In ChEMBL document CHEMBL5465560, “Selectivity Literature for EUbOPEN Chemogenomic Library” (2024) one finds % of control data, which are given here for two compounds.

For test [1], the system named is T1, Receptor-type tyrosine-protein kinase FLT3 (Homo sapiens), P36888 [R834Q].
T1 sequence (whole entry): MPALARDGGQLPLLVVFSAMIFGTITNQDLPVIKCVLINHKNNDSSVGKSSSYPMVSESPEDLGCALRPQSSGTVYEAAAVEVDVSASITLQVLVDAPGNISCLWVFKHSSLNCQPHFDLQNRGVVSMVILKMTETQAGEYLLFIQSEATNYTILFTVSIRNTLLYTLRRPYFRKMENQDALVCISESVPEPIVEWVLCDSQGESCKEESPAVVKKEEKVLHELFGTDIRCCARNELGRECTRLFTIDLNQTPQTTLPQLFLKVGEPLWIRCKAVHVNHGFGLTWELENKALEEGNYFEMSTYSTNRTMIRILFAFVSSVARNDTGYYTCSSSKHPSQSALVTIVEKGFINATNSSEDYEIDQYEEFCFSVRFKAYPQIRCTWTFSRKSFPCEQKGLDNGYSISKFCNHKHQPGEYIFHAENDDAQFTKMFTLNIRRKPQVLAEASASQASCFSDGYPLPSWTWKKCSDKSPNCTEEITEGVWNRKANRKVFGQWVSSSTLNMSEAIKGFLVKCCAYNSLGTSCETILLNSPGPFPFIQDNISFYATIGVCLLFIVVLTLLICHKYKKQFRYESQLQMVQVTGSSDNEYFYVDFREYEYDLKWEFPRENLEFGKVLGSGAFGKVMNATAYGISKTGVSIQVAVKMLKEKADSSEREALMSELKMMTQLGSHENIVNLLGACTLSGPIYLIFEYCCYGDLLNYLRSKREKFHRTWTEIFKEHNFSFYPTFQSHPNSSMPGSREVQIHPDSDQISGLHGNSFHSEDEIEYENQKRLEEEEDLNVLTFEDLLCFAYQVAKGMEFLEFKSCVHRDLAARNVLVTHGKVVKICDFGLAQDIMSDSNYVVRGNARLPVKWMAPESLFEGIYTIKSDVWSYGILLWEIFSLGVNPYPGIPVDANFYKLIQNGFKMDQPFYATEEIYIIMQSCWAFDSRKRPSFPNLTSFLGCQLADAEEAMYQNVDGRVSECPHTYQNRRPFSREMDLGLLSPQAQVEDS
The conditions noted are these: at 10 µM.

Test [2] has as its target T2, Ephrin type-B receptor 3 (Homo sapiens) (UniProt P54753).
T2 sequence (whole entry): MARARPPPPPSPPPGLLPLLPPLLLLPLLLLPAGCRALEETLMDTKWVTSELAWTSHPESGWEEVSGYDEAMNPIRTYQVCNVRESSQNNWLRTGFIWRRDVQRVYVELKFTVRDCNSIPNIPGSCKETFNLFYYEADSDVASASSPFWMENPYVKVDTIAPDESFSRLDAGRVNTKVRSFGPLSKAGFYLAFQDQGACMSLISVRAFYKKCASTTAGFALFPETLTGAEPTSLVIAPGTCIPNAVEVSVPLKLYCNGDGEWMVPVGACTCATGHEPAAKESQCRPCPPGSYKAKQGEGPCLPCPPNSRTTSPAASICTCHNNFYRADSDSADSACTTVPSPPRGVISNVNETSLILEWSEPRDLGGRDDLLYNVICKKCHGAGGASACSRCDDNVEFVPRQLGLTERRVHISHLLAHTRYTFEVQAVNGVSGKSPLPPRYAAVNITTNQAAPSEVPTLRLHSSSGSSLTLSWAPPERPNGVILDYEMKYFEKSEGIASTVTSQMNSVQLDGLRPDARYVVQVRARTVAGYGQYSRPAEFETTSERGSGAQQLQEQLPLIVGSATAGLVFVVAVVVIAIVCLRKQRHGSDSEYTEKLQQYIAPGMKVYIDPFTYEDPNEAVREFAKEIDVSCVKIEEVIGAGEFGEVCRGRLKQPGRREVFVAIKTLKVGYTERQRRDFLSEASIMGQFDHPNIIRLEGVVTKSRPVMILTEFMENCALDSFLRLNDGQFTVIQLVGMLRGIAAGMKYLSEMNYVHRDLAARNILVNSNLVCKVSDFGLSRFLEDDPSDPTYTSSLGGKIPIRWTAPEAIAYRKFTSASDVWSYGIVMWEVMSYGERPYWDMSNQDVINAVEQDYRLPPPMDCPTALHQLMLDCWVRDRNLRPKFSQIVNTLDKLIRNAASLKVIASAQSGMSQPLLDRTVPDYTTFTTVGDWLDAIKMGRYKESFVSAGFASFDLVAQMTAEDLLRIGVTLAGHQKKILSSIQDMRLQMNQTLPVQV
Kind of test: Selectivity interaction (KinomeScan (DiscoverX)) EUB0001049a EPHB3. Particulars: at 1 µM.

Test [3] has as its target T3, Ephrin type-B receptor 2 (Homo sapiens) (UniProt P29323).
T3 sequence (whole entry): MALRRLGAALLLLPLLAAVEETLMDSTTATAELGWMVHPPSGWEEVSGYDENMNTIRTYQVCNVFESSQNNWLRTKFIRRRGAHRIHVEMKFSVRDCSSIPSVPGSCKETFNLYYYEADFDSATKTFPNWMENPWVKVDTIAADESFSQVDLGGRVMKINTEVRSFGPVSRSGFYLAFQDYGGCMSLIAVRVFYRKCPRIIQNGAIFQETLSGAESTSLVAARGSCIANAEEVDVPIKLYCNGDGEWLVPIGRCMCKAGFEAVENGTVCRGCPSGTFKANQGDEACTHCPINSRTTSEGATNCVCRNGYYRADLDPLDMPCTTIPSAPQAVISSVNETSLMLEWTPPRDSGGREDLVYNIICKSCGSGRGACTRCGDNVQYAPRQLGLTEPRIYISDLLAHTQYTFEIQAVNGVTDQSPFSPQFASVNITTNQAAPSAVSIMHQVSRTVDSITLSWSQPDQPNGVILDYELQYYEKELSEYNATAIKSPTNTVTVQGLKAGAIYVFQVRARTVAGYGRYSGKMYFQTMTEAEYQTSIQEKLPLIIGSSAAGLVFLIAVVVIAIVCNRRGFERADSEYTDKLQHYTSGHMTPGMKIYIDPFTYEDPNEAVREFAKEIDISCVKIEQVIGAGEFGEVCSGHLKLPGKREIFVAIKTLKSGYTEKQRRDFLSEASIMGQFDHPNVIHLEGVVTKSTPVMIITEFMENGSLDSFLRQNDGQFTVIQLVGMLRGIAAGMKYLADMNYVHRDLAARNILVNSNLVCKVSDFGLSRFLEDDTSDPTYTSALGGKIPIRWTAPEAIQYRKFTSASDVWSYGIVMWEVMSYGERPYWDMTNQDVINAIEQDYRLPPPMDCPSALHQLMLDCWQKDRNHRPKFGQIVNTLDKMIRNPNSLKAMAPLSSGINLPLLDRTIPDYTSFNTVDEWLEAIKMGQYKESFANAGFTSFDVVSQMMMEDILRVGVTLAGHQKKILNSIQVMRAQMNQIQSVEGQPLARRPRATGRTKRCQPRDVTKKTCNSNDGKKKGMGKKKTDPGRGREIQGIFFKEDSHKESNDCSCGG
Kind of test: Selectivity interaction (KinomeScan (DiscoverX)) EUB0001049a EPHB2. Particulars: at 1 µM.

`Cc1cc([C@@H](C)Nc2ccccc2C(=O)O)c2nc(N3CCOCC3)cc(=O)n2c1` [AZD-6482] had a % of control in test [1] of 94%. `COc1cc(Nc2nc(C)cc(-c3cnn4nc(OC)ccc34)n2)cc(C(F)(F)F)c1`: the % of control in test [2] stood at 97%; in test [3] it was 92%.
